Values of other authors in patent publication US20160375049A1, “COMPOSITIONS” (GLOBALACORN LTD, priority 2013, published 2016).

Key:
P2X3 receptors = target: T1, P2X3 receptors (Homo sapiens, UniProt P56373)
T1 sequence (P56373 1-397): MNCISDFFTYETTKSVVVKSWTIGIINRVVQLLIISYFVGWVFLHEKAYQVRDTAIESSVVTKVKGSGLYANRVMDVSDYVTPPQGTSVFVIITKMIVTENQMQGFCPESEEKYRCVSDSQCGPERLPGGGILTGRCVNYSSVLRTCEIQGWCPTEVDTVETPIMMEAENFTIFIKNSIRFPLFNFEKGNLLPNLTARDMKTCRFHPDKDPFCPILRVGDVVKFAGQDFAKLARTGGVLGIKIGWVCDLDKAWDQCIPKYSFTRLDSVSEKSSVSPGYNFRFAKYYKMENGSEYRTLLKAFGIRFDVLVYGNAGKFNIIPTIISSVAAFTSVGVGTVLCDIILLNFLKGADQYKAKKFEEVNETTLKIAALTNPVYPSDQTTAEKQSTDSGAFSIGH

[1] = test system: inflammatory and neuropathic pain models; settings: systemic administration
persistent pain = settings: in vivo
[2] = test system: acute noxious stimulation; settings: in vivo
nociception = settings: in vivo

Row | Compound | binding to P2X3 receptors, concentration range (P2X3 receptors) | nociception in inflammatory and neuropathic pain models [1] | persistent pain in formalin and acetic acid-induced abdominal constriction tests (persistent pain) | activity in models of acute noxious stimulation [2] | anti-nociception in animal models (nociception)
1 | O=C(O)c1cc(C(=O)O)c(C(=O)N(Cc2cccc(Oc3ccccc3)c2)[C@H]2CCCc3ccccc32)cc1C(=O)O [A-317491] | micromolar range | effectively reduced nociception | effectively blocked persistent pain | generally inactive | –
2 | COc1cc(Cc2cnc(N)nc2N)c(C(C)C)cc1OC [RO-3] | – | – | – | – | induce anti-nociception
